System: 186277-243-T-J2-PDC complex spheroids, viability
Test: Anticancer human tumor 186277-243-T-J2-PDC patient-derived colon adenocarcinoma cell line growth inhibition [RAS]
Settings: for IC50: curve of first compound; for viability, T/C: stronger effect = lower value
In short: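 Multi-cell-type spheroids: tumor cells plus HUVEC endothelial cells and mesenchymal stem cells. RAS-pathway inhibitors were combined with targeted agents, each dosed in half-log steps down from clinical Cmax, or from 10 microM when Cmax was unknown.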

[1] = second compound 0.00316 µM, first compound 0.00316 µM
[2] = second compound 0.00316 µM, first compound 0.01 µM
[3] = second compound 0.00316 µM, first compound 0.0316 µM
[4] = second compound 0.00316 µM, first compound 0.1 µM
[5] = second compound 0.00316 µM, first compound 0.316 µM
[6] = second compound 0.00316 µM, first compound 1 µM
[7] = second compound 0.01 µM, first compound 0.00316 µM
[8] = second compound 0.01 µM, first compound 0.01 µM
[9] = second compound 0.01 µM, first compound 0.0316 µM
[10] = second compound 0.01 µM, first compound 0.1 µM
[11] = second compound 0.01 µM, first compound 0.316 µM
[12] = second compound 0.01 µM, first compound 1 µM
[13] = second compound 0.0316 µM, first compound 0.00316 µM
[14] = second compound 0.0316 µM, first compound 0.01 µM
[15] = second compound 0.0316 µM, first compound 0.0316 µM
[16] = second compound 0.0316 µM, first compound 0.1 µM
[17] = second compound 0.0316 µM, first compound 0.316 µM
[18] = second compound 0.0316 µM, first compound 1 µM
[19] = second compound 0.1 µM, first compound 0.00316 µM
[20] = second compound 0.1 µM, first compound 0.01 µM
[21] = second compound 0.1 µM, first compound 0.0316 µM
[22] = second compound 0.1 µM, first compound 0.1 µM
[23] = second compound 0.1 µM, first compound 0.316 µM
[24] = second compound 0.1 µM, first compound 1 µM
[25] = second compound 0.316 µM, first compound 0.00316 µM
[26] = second compound 0.316 µM, first compound 0.01 µM
[27] = second compound 0.316 µM, first compound 0.0316 µM
[28] = second compound 0.316 µM, first compound 0.1 µM
[29] = second compound 0.316 µM, first compound 0.316 µM
[30] = second compound 0.316 µM, first compound 1 µM
[31] = second compound 1 µM, first compound 0.00316 µM
[32] = second compound 1 µM, first compound 0.01 µM
[33] = second compound 1 µM, first compound 0.0316 µM
[34] = second compound 1 µM, first compound 0.1 µM
[35] = second compound 1 µM, first compound 0.316 µM
[36] = second compound 1 µM, first compound 1 µM
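Also: spheroids exposed to compounds for 7 days before viability read.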

Work on CC1(C)CCC(Nc2ncc(C(F)(F)F)c(-c3c[nH]c4c(P(C)(C)=O)c(C#N)ccc34)n2)CN1 (stereo unspecified) + C#Cc1c(F)ccc2cc(O)cc(-c3ncc4c(N5CC6CCC(C5)N6)nc(OCC56CCCN5CC(F)C6)nc4c3F)c12 yielded an IC50 (second compound 0.0316 µM) of 0.0698 µM, an IC50 (second compound 0.1 µM) of 0.0121 µM and an IC50 (second compound 0.316 µM) of under 0.000949 µM. It also gave an IC50 (second compound 1 µM) of under 0.000949 µM, an IC50 (second compound 3.16 µM) of under 0.000949 µM and an IC50 (second compound 10 µM) of under 0.000949 µM. The viability, T/C (second compound 0.0316 µM, first compound 0.000949 µM) was 91.9%, the viability, T/C (second compound 0.0316 µM, first compound 0.003 µM) was 80.4% and the viability, T/C (second compound 0.0316 µM, first compound 0.00949 µM) was 60.4%. The viability, T/C (second compound 0.0316 µM, first compound 0.03 µM) was 55.8%, the viability, T/C (second compound 0.0316 µM, first compound 0.0949 µM) was 51.8% and the viability, T/C (second compound 0.0316 µM, first compound 0.3 µM) was 40.9%. For the same compound, the viability, T/C (second compound 0.1 µM, first compound 0.000949 µM) was 50%, the viability, T/C (second compound 0.1 µM, first compound 0.003 µM) was 67.4% and the viability, T/C (second compound 0.1 µM, first compound 0.00949 µM) was 55.4%. For the same compound, the viability, T/C (second compound 0.1 µM, first compound 0.03 µM) was 29%, the viability, T/C (second compound 0.1 µM, first compound 0.0949 µM) was 34.5% and the viability, T/C (second compound 0.1 µM, first compound 0.3 µM) was 26.1%. It also gave a viability, T/C (second compound 0.316 µM, first compound 0.000949 µM) of 27.9%, a viability, T/C (second compound 0.316 µM, first compound 0.003 µM) of 29.9% and a viability, T/C (second compound 0.316 µM, first compound 0.00949 µM) of 23%. It also gave a viability, T/C (second compound 0.316 µM, first compound 0.03 µM) of 15.9%, a viability, T/C (second compound 0.316 µM, first compound 0.0949 µM) of 15.2% and a viability, T/C (second compound 0.316 µM, first compound 0.3 µM) of 17.2%. The viability, T/C (second compound 1 µM, first compound 0.000949 µM) was 15.6%, the viability, T/C (second compound 1 µM, first compound 0.003 µM) was 16.5% and the viability, T/C (second compound 1 µM, first compound 0.00949 µM) was 13%. The viability, T/C (second compound 1 µM, first compound 0.03 µM) was 13.9%, the viability, T/C (second compound 1 µM, first compound 0.0949 µM) was 12.4% and the viability, T/C (second compound 1 µM, first compound 0.3 µM) was 11.5%. The viability, T/C (second compound 3.16 µM, first compound 0.000949 µM) was 12.4%, the viability, T/C (second compound 3.16 µM, first compound 0.003 µM) was 11.7% and the viability, T/C (second compound 3.16 µM, first compound 0.00949 µM) was 11%. The viability, T/C (second compound 3.16 µM, first compound 0.03 µM) was 12.5%, the viability, T/C (second compound 3.16 µM, first compound 0.0949 µM) was 11.2% and the viability, T/C (second compound 3.16 µM, first compound 0.3 µM) was 8.62%. For the same compound, the viability, T/C (second compound 10 µM, first compound 0.000949 µM) was 8.95%, the viability, T/C (second compound 10 µM, first compound 0.003 µM) was 9.05% and the viability, T/C (second compound 10 µM, first compound 0.00949 µM) was 7.62%. The viability, T/C (second compound 10 µM, first compound 0.03 µM) was 6.45%, the viability, T/C (second compound 10 µM, first compound 0.0949 µM) was 9.73% and the viability, T/C (second compound 10 µM, first compound 0.3 µM) was 7.54%.
Compound C=CC(=O)Nc1cc(Nc2nccc(-c3cn(C)c4ccccc34)n2)c(OC)cc1N(C)CCN(C)C + C=CC(=O)N1CCN(c2nc(OCC3CCCN3C)nc3c(F)c(-c4nc(N)cc(C)c4C(F)(F)F)c(Cl)cc23)C(C)C1 has an IC50 (second compound 0.00316 µM) of over 1 µM, an IC50 (second compound 0.01 µM) of over 1 µM and an IC50 (second compound 0.0316 µM) of over 1 µM. For the same compound, the IC50 (second compound 0.1 µM) was over 1 µM, the IC50 (second compound 0.316 µM) was over 1 µM and the IC50 (second compound 1 µM) was over 1 µM. The viability, T/C [1] was 82.3%, the viability, T/C [2] was 89.4% and the viability, T/C [3] was 89.8%. The viability, T/C [4] was 80.5%, the viability, T/C [5] was 97.4% and the viability, T/C [6] was 110%. For the same compound, the viability, T/C [7] was 96.1%, the viability, T/C [8] was 88.2% and the viability, T/C [9] was 89.8%. The viability, T/C [10] was 94%, the viability, T/C [11] was 107% and the viability, T/C [12] was 77.3%. For the same compound, the viability, T/C [13] was 84.8%, the viability, T/C [14] was 91.6% and the viability, T/C [15] was 93.2%. For the same compound, the viability, T/C [16] was 96.1%, the viability, T/C [17] was 99.1% and the viability, T/C [18] was 97%. The viability, T/C [19] was 89.6%, the viability, T/C [20] was 85% and the viability, T/C [21] was 79.5%. For the same compound, the viability, T/C [22] was 109%, the viability, T/C [23] was 126% and the viability, T/C [24] was 86.8%. The viability, T/C [25] was 89.4%, the viability, T/C [26] was 94.3% and the viability, T/C [27] was 103%. It also gave a viability, T/C [28] of 86.5%, a viability, T/C [29] of 130% and a viability, T/C [30] of 98.9%. It also gave a viability, T/C [31] of 109%, a viability, T/C [32] of 78.8% and a viability, T/C [33] of 91.9%. It also gave a viability, T/C [34] of 104%, a viability, T/C [35] of 82.1% and a viability, T/C [36] of 81.2%.
For O=C(c1ccc(F)c(F)c1Nc1ccc(I)cc1F)N1CC(O)([C@@H]2CCCCN2)C1 + C=CC(=O)N1CCN(c2nc(OCC3CCCN3C)nc3c(F)c(-c4nc(N)cc(C)c4C(F)(F)F)c(Cl)cc23)C(C)C1, the IC50 (second compound 0.00316 µM) was 0.0521 µM, the IC50 (second compound 0.01 µM) was 0.0637 µM and the IC50 (second compound 0.0316 µM) was 0.0669 µM. The IC50 (second compound 0.1 µM) was 0.0745 µM, the IC50 (second compound 0.316 µM) was 0.0734 µM and the IC50 (second compound 1 µM) was 0.0861 µM. The viability, T/C [1] was 104%, the viability, T/C [2] was 99.3% and the viability, T/C [3] was 59.9%. The viability, T/C [4] was 34%, the viability, T/C [5] was 12% and the viability, T/C [6] was 5.96%. It also gave a viability, T/C [7] of 93.8%, a viability, T/C [8] of 110% and a viability, T/C [9] of 79.2%. The viability, T/C [10] was 30.4%, the viability, T/C [11] was 11.9% and the viability, T/C [12] was 5.44%. It also gave a viability, T/C [13] of 99.3%, a viability, T/C [14] of 87.8% and a viability, T/C [15] of 78.1%. For the same compound, the viability, T/C [16] was 35%, the viability, T/C [17] was 12.1% and the viability, T/C [18] was 5.54%. For the same compound, the viability, T/C [19] was 75.7%, the viability, T/C [20] was 98% and the viability, T/C [21] was 70.5%. The viability, T/C [22] was 42.8%, the viability, T/C [23] was 11.4% and the viability, T/C [24] was 5.74%. It also gave a viability, T/C [25] of 78.8%, a viability, T/C [26] of 92.2% and a viability, T/C [27] of 93.8%. The viability, T/C [28] was 35.9%, the viability, T/C [29] was 13.3% and the viability, T/C [30] was 7.18%. It also gave a viability, T/C [31] of 98.1%, a viability, T/C [32] of 96.8% and a viability, T/C [33] of 82.6%. It also gave a viability, T/C [34] of 45.6%, a viability, T/C [35] of 13.2% and a viability, T/C [36] of 6.57%.

— PubChem BioAssay AID2060908 (Molecular Pharmacology Branch, DTP, NCI, 2025)
